Data set [1] concerns Puccinia recondite. Put plainly: Puccinia test (wheat)/protective. In kind it is in vivo. The note with it: 240 h, wheat plants, protective, application rate 500 g/ha, evaluation 10 days after inoculation, solvent/emulsifier parts 25/0.5, 25/0.6 or 50/1.0, read-out: % efficacy. The procedure:
Puccinia Test (Wheat)/Protective • Solvent: N,N-dimethylacetamide • Emulsifier: alkylaryl polyglycol ether […] To test for protective activity, young plants are sprayed with the preparation of active compound at the stated application rate. After the spray coating has dried on, the plants are sprayed with a conidia suspension of Puccinia recondite. […] The plants are then placed in a greenhouse at a temperature of about 20° C. and a relative atmospheric humidity of 80% to promote the development of rust pustules.

Data set [2] has as its system Alternaria solani. Put plainly: Alternaria test (tomato)/protective. To be noted: tomato plants, protective, application rate 750 g/ha, evaluation 7 days after inoculation. The format is in vivo. The procedure:
Alternaria Test (Tomato)/Protective
• Solvent: 49 parts by weight of N,N-dimethylformamide • Emulsifier: 1 part by weight of alkylaryl polyglycol ether
To produce a suitable preparation of active compound, 1 part by weight of active compound is mixed with the stated amounts of solvent and emulsifier, and the concentrate is diluted with water to the desired concentration.
To test for protective activity, young tomato plants are sprayed with the preparation of active compound at the stated application rate. 1 day after the treatment, the plants are inoculated with a spore suspension of Alternaria solani and are then allowed to stand at 100% relative humidity and 20° C. for 24 h. The plants are then allowed to stand at 96% relative atmospheric humidity and a temperature of 20° C.
Evaluation is carried out 7 days after the inoculation. 0% means an efficacy which corresponds to that of the control, whereas an efficacy of 100% means that no infection is observed.

The test system of data set [3] is Botrytis cinerea. Put plainly: Botrytis test (bean)/protective. In kind it is in vivo. To be noted: 48 h, bean plants, protective, application rate 500 g/ha, evaluation 2 days after inoculation, read-out: % efficacy. The procedure: Botrytis Test (Bean)/Protective
• Solvents:24.5 parts by weight of acetone 24.5 parts by weight of dimethylacetamide • Emulsifier: 1 part by weight of alkylaryl polyglycol ether
(§1) To produce a suitable preparation of active compound, 1 part by weight of active compound is mixed with the stated amounts of solvents and emulsifier, and the concentrate is diluted with water to the desired concentration.
To test for protective activity, young plants are sprayed with the preparation of active compound at the stated application rate. After the spray coating has dried on, 2 small pieces of agar colonized with Botrytis cinerea are placed onto each leaf. The inoculated plants are placed in a dark chamber at about 20° C. and 100% relative atmospheric humidity.
2 days after the inoculation, the size of the infected areas on the leaves is evaluated. 0% means an efficacy which corresponds to that of the control, whereas an efficacy of 100% means that no infection is observed.

The test system of data set [4] is Venturia inaequalis. Put plainly: Venturia test (apple)/protective. To be noted: 240 h, apple plants, protective, application rate 100 g/ha, evaluation 10 days after inoculation, read-out: % efficacy. In kind it is in vivo. The method, then:
Venturia Test (Apple)/Protective
• Solvents: 24.5 parts by weight of acetone 24.5 parts by weight of dimethylacetamide • Emulsifier: 1 part by weight of alkylaryl polyglycol ether
as §1
To test for protective activity, young plants are sprayed with the preparation of active compound at the stated application rate. After the spray coating has dried on, the plants are inoculated with an aqueous conidia suspension of the apple scab pathogen Venturia inaequalis and then remain in an incubation cabin at about 20° C. and 100% relative atmospheric humidity for 1 day.
The plants are then placed in a greenhouse at about 21° C. and a relative atmospheric humidity of about 90%.
Evaluation is carried out 10 days after the inoculation. 0% means an efficacy which corresponds to that of the control, whereas an efficacy of 100% means that no infection is observed.

Data set [5] can be described thus: logP determination by HPLC on reversed-phase column (EEC Directive 79/831 Annex V.A8). The format is physicochemical. To be noted: reversed-phase C18 HPLC column. The procedure: The given logP values were determined in accordance with EEC Directive 79/831 Annex V.A8 by HPLC (High Performance Liquid Chromatography) on a reversed-phase column (C 18). Temperature: 43° C. […] Calibration was carried out using unbranched alkan-2-ones (having 3 to 16 carbon atoms) with known logP values (determination of the logP values by the retention times using linear interpolation between two successive alkanones).

Setting [6] is: pH 2.3, C18, 43° C., read-out: logP (pH 2.3).
[7] abbreviates: Table 1 logP / m.p., C18, 43° C., acidic range (pH 2.3), read-out: logP.
[8] abbreviates: pH 2.3, C18, 43° C., precursors, read-out: HPLC: logP.

Where two headings read alike, the source gives them in different places.

Consider `CC(CC(C)(C)C)c1ccccc1NC(=O)C1=C(C(F)(F)F)OCCS1` (centres unmarked) [Example 2, N-[2-(1,3,3-trimethylbutyl)phenyl]-6-trifluoromethyl-2,3-dihydro-1,4-oxathiin-5-carboxamide], for which the pest or weed control at 500 g/ha in data set [1] and in data set [3] was 100% each time. In addition, the “% efficacy” value in data set [2] came out at 100%. Also, in data set [4], the pest or weed control at 100 g/ha came out at 98%. In addition, the chromatographic logP in data set [5] (setting [6]) worked out at 4.18.

Regarding `CC1CC(C)(C)c2cccc(NC(=O)C3=C(C(F)(F)F)OCCS3)c21` (centres unmarked) [Example 12], the pest or weed control at 500 g/ha in data set [3] is 97%. Moreover, in data set [4], the pest or weed control at 100 g/ha turned out to be 100%.

In the case of `O=C(Nc1ccc(F)cc1-c1ccc(Cl)c(Cl)c1)C1=C(C(F)(F)F)OCCS1` [Example 17], the pest or weed control at 500 g/ha in data set [1] is 86%; in data set [3], 96%. The pest or weed control at 100 g/ha in data set [4] stood at 100%. Also, the chromatographic logP in data set [5] (setting [7]) was found to be 3.95.

As for `CC(C)CC(C)c1ccccc1NC(=O)C1=C(C(F)(F)F)OCCS1` (centres unmarked) [Example 18], the pest or weed control at 500 g/ha in data set [1] and in data set [3] was 100% throughout. The pest or weed control at 100 g/ha in data set [4] was 100%. Besides, in data set [5] (setting [7]), the chromatographic logP was found to be 3.92.

Turning to `O=C(Nc1ccccc1-c1ccc(Cl)c(Cl)c1)C1=C(C(F)(F)F)OCCS1` [Example 19], the pest or weed control at 500 g/ha in data set [1] and in data set [3] was 100% throughout. The “% efficacy” value in data set [2] amounted to 100%. Further, in data set [4], the pest or weed control at 100 g/ha stood at 100%. For the same compound, the chromatographic logP in data set [5] (setting [7]) was determined as 3.91.

Consider `O=C(Nc1ccccc1-c1ccc(C(F)(F)F)cc1)C1=C(C(F)(F)F)OCCS1` [Example 20], for which, in data set [3], the pest or weed control at 500 g/ha is 100%. Further, the pest or weed control at 100 g/ha in data set [4] is 88%. The chromatographic logP in data set [5] (setting [7]) stood at 3.73.

`CC(C)O/N=C/c1ccc(-c2ccccc2NC(=O)C2=C(C(F)(F)F)OCCS2)cc1` [Example 21]: the “% efficacy” value in data set [2] was determined as 100%. Also, in data set [3], the pest or weed control at 500 g/ha turned out to be 100%. In addition, in data set [4], the pest or weed control at 100 g/ha was 100%. Besides, the chromatographic logP in data set [5] (setting [7]) stood at 4.22.

Turning to `CCCO/N=C/c1ccc(-c2ccccc2NC(=O)C2=C(C(F)(F)F)OCCS2)cc1` [Example 22], in data set [3], the pest or weed control at 500 g/ha came to 100%. The pest or weed control at 100 g/ha in data set [4] came out at 100%. For the same compound, the chromatographic logP in data set [5] (setting [7]) stood at 4.25.

For the compound `O=C(Nc1ccccc1-c1ccc(Cl)c(F)c1)C1=C(C(F)(F)F)OCCS1` [Example 23], the pest or weed control at 500 g/ha in data set [1] amounted to 89%. Also, the chromatographic logP in data set [5] (setting [7]) was 3.62.

As for `O=C(Nc1ccccc1-c1ccc(F)c(Cl)c1)C1=C(C(F)(F)F)OCCS1` [Example 24], the pest or weed control at 500 g/ha in data set [1] is 100%. In addition, the chromatographic logP in data set [5] (setting [7]) was 3.6.

For the compound `Cc1cc(Cl)ccc1-c1ccccc1NC(=O)C1=C(C(F)(F)F)OCCS1` [Example 26], in data set [2], the “% efficacy” value is given as 100%. For the same compound, the chromatographic logP in data set [5] (setting [7]) was found to be 4.

Consider `O=C(Nc1ccccc1-c1ccc(Br)cc1)C1=C(C(F)(F)F)OCCS1` [Example 27], for which the pest or weed control at 500 g/ha in data set [1] turned out to be 88%. Besides, the chromatographic logP in data set [5] (setting [7]) is 3.7.

Consider `O=C(Nc1ccccc1-c1ccc(C(F)(F)F)c(F)c1)C1=C(C(F)(F)F)OCCS1` [Example 29], for which the pest or weed control at 500 g/ha in data set [1] was 94%. The chromatographic logP in data set [5] (setting [7]) was 3.75.

For `Cc1cc(-c2ccccc2NC(=O)C2=C(C(F)(F)F)OCCS2)ccc1F` [Example 35], in data set [1], the pest or weed control at 500 g/ha was determined as 88%. In addition, in data set [5] (setting [7]), the chromatographic logP came to 3.65.

As to `CC(CC1CCCC1)c1ccccc1NC(=O)C1=C(C(F)(F)F)OCCS1` (centres unmarked) [Example 37], the pest or weed control at 500 g/ha in data set [1] was 93%. In data set [5] (setting [7]), the chromatographic logP was 4.38.

`Cc1ccc(-c2ccccc2NC(=O)C2=C(C(F)(F)F)OCCS2)cc1Cl` [Example 38]: the pest or weed control at 500 g/ha in data set [1] was found to be 88%. The chromatographic logP in data set [5] (setting [7]) came out at 3.89.

Consider `CC/C(=N\OC)c1ccc(-c2ccccc2NC(=O)C2=C(C(F)(F)F)OCCS2)cc1` [Example 56], for which the pest or weed control at 500 g/ha in data set [1] was 88%. Besides, in data set [5] (setting [7]), the chromatographic logP is 4.08.

For `O=C(Nc1ccccc1-c1ccc(Br)c(F)c1)C1=C(C(F)(F)F)OCCS1` [Example 57], the pest or weed control at 500 g/ha in data set [1] worked out at 88%. Further, the chromatographic logP in data set [5] (setting [7]) was 3.69.

On to `O=C(Nc1ccccc1-c1ccc(Cl)cc1Cl)C1=C(C(F)(F)F)OCCS1` [Example 79], for which the pest or weed control at 500 g/ha in data set [1] was 86%. Moreover, the chromatographic logP in data set [5] (setting [7]) came out at 3.82.

For the compound `CC(C)CC(C)c1ccccc1NC(=O)C1=C(C(F)F)OCCS1` (centres unmarked) [Example 82], the pest or weed control at 500 g/ha in data set [1] was found to be 100%. The chromatographic logP in data set [5] (setting [7]) is 4.03.

`CC1COC(C(F)(F)F)=C(C(=O)O)S1` (centres unmarked) [Example (II-2)]: the chromatographic logP in data set [5] (setting [8]) is 1.69.

On to `CC1CSC(C(=O)O)=C(C(F)(F)F)O1` (centres unmarked) [Example (II-3)], for which the chromatographic logP in data set [5] (setting [8]) was found to be 1.72.

On to `CC(C)=CC(C)c1ccccc1N` (centres unmarked) [Example (III-2)], for which the chromatographic logP in data set [5] (setting [8]) was 1.19.

For `CCC(Cl)CC(C)c1ccccc1N` (centres unmarked) [Example (III-3), 2-(3-Chloro-1-methylpentyl)phenylamine], the chromatographic logP in data set [5] (setting [8]) stood at 2.3.

In the case of `CC(CC1CC1(Cl)Cl)c1ccccc1NC(=O)C(C)(C)C` (centres unmarked) [III-4a, N-{2-[2-(2,2-dichlorocyclopropyl)-1-methylethyl]-phenyl}-2,2-dimethylpropionamide], the chromatographic logP in data set [5] (setting [6]) was 3.77.

(Values after US7847108B2, “Oxathiin carboxamides” (Bayer CropScience AG, priority 2003, dated 2010).)
